Source: patent US4613610A, “Cholesterol biosynthesis inhibiting pyrazole analogs of mevalonolactone and its derivatives” (Sandoz Pharmaceuticals Corp., priority 1985, dated 1986)
Where two headings read alike, the source gives them in different places.

Legend:
[1] = tested on: 3β-hydroxysterol synthesis (cholesterol biosynthesis); experiment: Test B. In Vivo Cholesterol Biosynthesis Inhibition Test; parameters: species or system rat (male Wistar Royal Hart); conditions: Rattus norvegicus, read-out: ED50 (50% inhibition of 3β-hydroxysterol synthesis)
Experimental: In vivo studies utilize male Wistar Royal Hart rats weighing 150±20 g. which have been kept for 7-10 days on an altered light cycle (6:30 A.M.-6:30 P.M. dark) housed two per cage and fed powdered Purina Rat Chow and water ad libitum. Three hours before the diurnal maximum of cholesterol synthesis at mid-dark, the rats are orally administered the test substance (e.g., 0.01-200 mg./kg. body weight) dissolved or as a suspension in 0.5% carboxymethylcellulose in a volume of 1 ml./100 g. body weight. Controls receive vehicle alone. One hour after receiving the test substance (or the vehicle alone), the rats are injected intraperitoneally with about 25 μCi/100 g. body weight of sodium [1-^14 C]acetate 1-3 mCi/mmol. Two hours after mid-dark, blood samples are obtained under sodium hexobarbitol anesthesia, and the serum is separated by centrifugation.
Serum samples are saponified and neutralized, and the 3β-hydroxysterols are precipitated with digitonin basically as described in Sperry et al., J. Biol. Chem. 187, 97 (1950). The [^14 C]digitonides are then counted by liquid scintillation spectrometry. After correcting for efficiencies, the results are calculted in nCi (nanocuries)of 3β-hydroxysterol formed per 100 ml. of serum. Inhibition of 3β-hydroxysterol synthesis is calculated from the reduction in the nCi of 3β-hydroxysterols formed from test groups compared to controls.
ED50 is the dose of the test substance calculated or observed to produce a 50% inhibition of 3β-hydroxysterol synthesis.

HMG-CoA reductase = biological target: T1, HMG-CoA reductase (Rattus norvegicus, UniProt P51639); experiment: Test A. In Vitro Microsomal Assay of HMG-CoA Reductase Inhibition; assay type: biochemical, rat (male Sprague-Dawley rat liver microsomes)
T1 construct: the microsomes are the source of the HMG-CoA reductase enzyme; from tissue; host or cells: liver microsomes of male Sprague-Dawley rats (150-225 g)
T1 sequence (P51639 1-887): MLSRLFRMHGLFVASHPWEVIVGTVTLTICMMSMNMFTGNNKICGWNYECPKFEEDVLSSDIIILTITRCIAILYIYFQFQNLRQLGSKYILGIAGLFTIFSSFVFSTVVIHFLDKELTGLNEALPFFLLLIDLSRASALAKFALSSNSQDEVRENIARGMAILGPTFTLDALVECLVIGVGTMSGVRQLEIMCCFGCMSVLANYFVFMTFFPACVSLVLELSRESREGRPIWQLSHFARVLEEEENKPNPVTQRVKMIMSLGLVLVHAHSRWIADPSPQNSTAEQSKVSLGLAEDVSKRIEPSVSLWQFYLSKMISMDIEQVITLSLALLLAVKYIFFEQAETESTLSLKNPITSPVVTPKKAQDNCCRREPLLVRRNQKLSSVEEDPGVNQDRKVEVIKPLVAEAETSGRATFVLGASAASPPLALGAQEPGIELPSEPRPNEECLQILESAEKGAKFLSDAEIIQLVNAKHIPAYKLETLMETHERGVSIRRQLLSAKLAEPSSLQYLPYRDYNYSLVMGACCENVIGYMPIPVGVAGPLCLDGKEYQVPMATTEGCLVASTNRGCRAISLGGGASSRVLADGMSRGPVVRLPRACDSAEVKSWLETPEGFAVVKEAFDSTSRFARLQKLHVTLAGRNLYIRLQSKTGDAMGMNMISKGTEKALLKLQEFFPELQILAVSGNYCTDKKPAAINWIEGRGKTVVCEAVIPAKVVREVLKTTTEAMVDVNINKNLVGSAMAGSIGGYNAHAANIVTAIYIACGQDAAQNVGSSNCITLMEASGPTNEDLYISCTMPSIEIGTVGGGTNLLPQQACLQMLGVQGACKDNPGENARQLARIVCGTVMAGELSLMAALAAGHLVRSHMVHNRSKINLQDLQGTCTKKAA
Experimental: Test A. In Vitro Microsomal Assay of HMG-CoA Reductase Inhibition:
200 μl. aliquots (1.08-1.50 mg./ml.) of rat liver microsomal suspensions, freshly prepared from male Sprague-Dawley rats (150-225 g. body weight), in Buffer A with 10 mmol. dithiothreitol are incubated with 10 μl. of a solution of the test substance in dimethylacetamide and assayed for HMG-CoA reductase activity as described in Ackerman et al., J. Lipid Res. 18, 408-413 (1977), the concentration of the test substance in the assay system being 0.0001-2,000 μmolar. In the assay the microsomes are the source of the HMG-CoA reductase enzyme which catalyzes the reduction of HMG-CoA to mevalonate. The assay employs a chloroform extraction to separate the product, [^14 C]mevalonolactone, formed by the HMG-CoA reductase recution of the substrate, [^14 C]HMG-CoA. [^3 H]mevalonolactone is added as an internal reference. Inhibition of HMG-CoA reductase is calculated from the decrease in specific activity ([^14 C/^3 H]mevalonate) of test groups compared to controls.
IC50 is the concentration of the test substance in the assay system calculated or observed to produce a 50% inhibition of HMG-CoA reductase activity.

[2] = male rats, oral, in 0.5% carboxymethylcellulose, [1-14C]acetate i.p. 1 h later, serum, calculated or observed
[3] = rat liver microsomal suspensions, test substance 0.0001-2,000 μmolar, calculated or observed, read-out: IC50 (50% inhibition of HMG-CoA reductase activity)

Row | SMILES | ED50 [1, 2] | IC50 (HMG-CoA reductase; [3]) | ED50 ([1]; po, 1 h) | IC50 (HMG-CoA reductase)
1 | CC(C)c1nn(-c2ccccc2)c(-c2ccc(F)cc2)c1/C=C/[C@@H](O)C[C@@H](O)CC(=O)O (relative stereo) [Example 14, Sodium erythro-(±)-(E)-3,5-dihydroxy-7-[5'-(4"-fluorophenyl)-3'-(1"-methylethyl)-1'-phenyl-1H-pyrazol-4'-yl]hept-6-enoate] | 0.013 mg/kg | 20 nM | – | –
2 | CC[C@H](C)C(=O)O[C@H]1CCC=C2C=C[C@H](C)[C@H](CC[C@@H]3C[C@@H](O)CC(=O)O3)[C@H]21 [Compactin, reference compound] | 3.5 mg/kg | – | – | –
3 | CC(C)n1nc(-c2ccccc2)c(-c2ccc(F)cc2)c1/C=C/[C@@H](O)C[C@@H](O)CC(=O)O [Example 3, Sodium erythro-(E)-3R,5S-dihydroxy-7-[4'-(4"-fluorophenyl)-1'-(1"-methylethyl)-3'-phenyl-1H-pyrazol-5'-yl]hept-6-enoate] | 0.05 mg/kg | 60 nM | – | –
4 | CC(C)n1nc(-c2ccccc2)c(-c2ccc(F)cc2)c1/C=C\[C@@H]1C[C@@H](O)CC(=O)O1 [Example 2, (Z)-Trans-6S-(2'-[4"-(4'"-fluorophenyl)-1"-(1'"-methylethyl)-3"-phenyl-1H-pyrazol-5"-yl]ethenyl)-4R-hydroxy-3,4,5,6-tetrahydro-2H-pyran-2-one] | – | 103000 nM | – | –
5 | CC[C@H](C)C(=O)O[C@H]1C[C@@H](C)C=C2C=C[C@H](C)[C@H](CC[C@@H]3C[C@@H](O)CC(=O)O3)[C@H]21 [Mevinolin, reference compound] | – | – | 0.41 mg/kg | 140 nM
6 | CC(C)n1nc(-c2ccccc2)c(-c2ccc(F)cc2)c1/C=C/[C@@H](O)C[C@@H](O)CC(=O)O (relative stereo) [Example 7, Sodium erythro-(E)-3,5-dihydroxy-7-[4'-(4"-fluorophenyl)-1'-(1"-methylethyl)-3'-phenyl-1H-pyrazol-5'-yl]hept-6-enoate] | 0.06 mg/kg | 40 nM | – | –
7 | CC(C)n1nc(-c2ccccc2)c(-c2ccc(F)cc2)c1/C=C/[C@@H]1C[C@@H](O)CC(=O)O1 [Example 1, (E)-Trans-6S-(2'-[4"-(4'"-fluorophenyl)-1"-(1'"-methylethyl)-3"-phenyl-1H-pyrazol-5"-yl]ethenyl)-4R-hydroxy-3,4,5,6-tetrahydro-2H-pyran-2-one] | – | 80 nM | – | –
8 | CC(C)c1c(/C=C/[C@@H]2C[C@@H](O)CC(=O)O2)c(-c2ccc(F)cc2)nn1-c1ccccc1 (relative stereo) [Example 11, (E)-Trans-6-(2'-[3"-(4'"-fluorophenyl)-5"-(1'"-methylethyl)-1"-phenyl-1H-pyrazol-4"-yl]ethenyl)-4-hydroxy-3,4,5,6-tetrahydro-2H-pyran-2-one] | – | 260 nM | – | –
